# Results taken from PMC8348686, “The Pharmacological Profile of Second Generation Pyrovalerone Cathinones and Related Cathinone Derivative” (International Journal of Molecular Sciences, 2021).
# Read-outs that look alike come from different tables or passages of the source.
# Tests used:
# [1] = biological target: T1, human norepinephrine (hNET) uptake transporter (Homo sapiens, UniProt P23975); assay: Monoamine uptake inhibition, norepinephrine uptake in transfected HEK293 cells; assay type: cell-based; details: for fold higher inhibition potency at the NET: compared to α-PPP
# T1 construct: expressed in transfected cells; host or cells: HEK293
# T1 sequence (P23975 whole entry): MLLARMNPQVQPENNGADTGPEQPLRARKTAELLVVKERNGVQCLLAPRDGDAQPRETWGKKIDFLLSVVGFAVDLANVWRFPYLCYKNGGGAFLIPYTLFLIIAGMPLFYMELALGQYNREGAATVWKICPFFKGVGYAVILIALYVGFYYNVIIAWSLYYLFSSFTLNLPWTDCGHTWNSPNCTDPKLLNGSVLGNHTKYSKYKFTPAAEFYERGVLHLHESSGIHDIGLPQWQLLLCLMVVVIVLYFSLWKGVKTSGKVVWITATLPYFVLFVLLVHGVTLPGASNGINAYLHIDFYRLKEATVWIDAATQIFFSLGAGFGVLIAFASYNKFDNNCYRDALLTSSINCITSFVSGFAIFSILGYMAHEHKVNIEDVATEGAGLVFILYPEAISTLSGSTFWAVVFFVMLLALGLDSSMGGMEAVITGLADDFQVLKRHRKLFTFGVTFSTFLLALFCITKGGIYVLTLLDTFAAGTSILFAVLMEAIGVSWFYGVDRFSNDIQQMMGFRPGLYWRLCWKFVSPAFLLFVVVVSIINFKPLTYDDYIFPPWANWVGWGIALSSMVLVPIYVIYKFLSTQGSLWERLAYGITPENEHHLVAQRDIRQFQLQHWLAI
# Procedure: (§1) The monoamine uptake transporter inhibition was examined in accordance with previously described methods by for each substance of interest.
# (§2) Human embryonic kidney 293 (HEK293) cells (Invitrogen, Zug, Switzerland) stably transfected with the human norepinephrine (hNET), dopamine (hDAT), or serotonin (hSERT) uptake transporters were briefly cultured in Dulbecco’s modified Eagle’s medium (DMEM; Gibco, Life Technologies, Zug, Switzerland) containing 10% fetal bovine serum and 250 μg/mL geneticin (Gibco, Life Technologies, Zug, Switzerland). Next, the cells were detached at a confluency of 70−90% and resuspended in Krebs–Ringer Bicarbonate Buffer (Sigma-Aldrich, Buchs, Switzerland) at a concentration of 3 × 10^6 cells per ml. The uptake buffer was additionally supplemented with 0.2 mg/mL of ascorbic acid (Sigma–Aldrich, Buchs, Switzerland) for the [^3H]-DA uptake experiments.
# (§3) In summary, using round bottom 96-well plates, 100 μL of cell suspension was incubated in 25 μL of buffer containing test substances, vehicle control (0.7% dimethyl sulfoxide, DMSO), or 10 μM of the respective monoamine uptake inhibitor, mainly fluoxetine (SERT), nisoxetine (NET), or mazindol (DAT) for 10 min at room temperature while on a rotary shaker at 450 rpm (Thermomixer Comfort, Eppendorf, Hamburg, Germany). Thereafter, the monoamine uptake transporter was initiated by the addition of 50 μL of each respective radiolabelled neurotransmitter ([^3H]-5-HT, [^3H]-DA or [^3H]-NE) dissolved in the uptake buffer to a final concentration of 5 nM for an additional 10 min. Then, 100 μL of cell suspension mixture was transferred to microcentrifuge tubes containing 50 μL of 3 M potassium hydroxide (KOH, Sigma–Aldrich, Buchs, Switzerland) and 200 μL silicon oil (1:1 mixture of silicon oil type AR20 and AR200; Sigma–Aldrich, Buchs, Switzerland). Immediately after, the tubes were centrifugated (3 min, 13200 rpm) to terminate the uptake reaction by allowing the cells to move through the silicon oil into the KOH, which then lysed the cells. Quickly after, the tubes were immediately frozen with liquid nitrogen. Afterwards, the frozen cell pellet was cut off into 6 mL scintillation vials (Perkin–Elmer, Schwerzenbach, Switzerland) filled with 500 μL of lysis buffer (5 mM EDTA, 0.05 M TRIS-HCl, 50 mM NaCl and 1% NP-40 in water). Directly after the vials were shaken for 1 h at 700 rpm and then each vial was filled with 3 mL of scintillation fluid (Ultimagold, Perkin–Elmer, Schwerzenbach, Switzerland). The uptake of the monoamines was measured using a liquid scintillation counter (Packard Tri-Carb Liquid Scintillation Counter 1900 TR).
# (§4) The data were analysed using Prism software (version 8, GraphPad, San Diego, CA, USA) and was fitted by a nonlinear regression to variable-slope sigmoidal dose-response curve. The IC50 values were extracted in order to determine each drug’s inhibition potency at the various monoamine transporters.
# hSERT = hSERT (Homo sapiens, UniProt P31645); details: read-out: hSERT Receptor Binding Ki ± SD, [3H]-Citalopram, cited from earlier work
# Sequence of hSERT (P31645 whole entry): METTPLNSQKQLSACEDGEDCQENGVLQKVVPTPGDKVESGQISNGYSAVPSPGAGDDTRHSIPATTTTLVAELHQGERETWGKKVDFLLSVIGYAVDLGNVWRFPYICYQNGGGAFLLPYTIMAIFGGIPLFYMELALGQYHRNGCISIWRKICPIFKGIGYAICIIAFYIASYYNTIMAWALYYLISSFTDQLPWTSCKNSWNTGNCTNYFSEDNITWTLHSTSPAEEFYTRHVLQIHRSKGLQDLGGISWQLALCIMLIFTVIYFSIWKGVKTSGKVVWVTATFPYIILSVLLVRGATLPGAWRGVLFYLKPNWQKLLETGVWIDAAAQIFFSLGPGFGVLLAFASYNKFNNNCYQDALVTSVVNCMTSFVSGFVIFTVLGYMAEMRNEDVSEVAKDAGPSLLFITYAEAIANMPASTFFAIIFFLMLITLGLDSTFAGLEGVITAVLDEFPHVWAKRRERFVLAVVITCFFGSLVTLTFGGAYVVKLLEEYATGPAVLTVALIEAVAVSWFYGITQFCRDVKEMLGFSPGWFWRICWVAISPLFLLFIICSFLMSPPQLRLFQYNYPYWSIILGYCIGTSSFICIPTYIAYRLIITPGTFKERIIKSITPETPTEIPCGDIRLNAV
# [2] = biological target: T2, human serotonin (hSERT) uptake transporter (Homo sapiens, UniProt P31645); assay: Monoamine uptake inhibition, serotonin uptake in transfected HEK293 cells; assay type: cell-based
# T2 construct: expressed in transfected cells; host or cells: HEK293
# T2 sequence (P31645 whole entry): as above
# Procedure: as §1, §2, §3, §4
# hDAT = hDAT (Homo sapiens, UniProt Q01959); details: read-out: hDAT Receptor Binding Ki ± SD, [3H]-WIN-35,428, cited from earlier work
# Sequence of hDAT (Q01959 whole entry): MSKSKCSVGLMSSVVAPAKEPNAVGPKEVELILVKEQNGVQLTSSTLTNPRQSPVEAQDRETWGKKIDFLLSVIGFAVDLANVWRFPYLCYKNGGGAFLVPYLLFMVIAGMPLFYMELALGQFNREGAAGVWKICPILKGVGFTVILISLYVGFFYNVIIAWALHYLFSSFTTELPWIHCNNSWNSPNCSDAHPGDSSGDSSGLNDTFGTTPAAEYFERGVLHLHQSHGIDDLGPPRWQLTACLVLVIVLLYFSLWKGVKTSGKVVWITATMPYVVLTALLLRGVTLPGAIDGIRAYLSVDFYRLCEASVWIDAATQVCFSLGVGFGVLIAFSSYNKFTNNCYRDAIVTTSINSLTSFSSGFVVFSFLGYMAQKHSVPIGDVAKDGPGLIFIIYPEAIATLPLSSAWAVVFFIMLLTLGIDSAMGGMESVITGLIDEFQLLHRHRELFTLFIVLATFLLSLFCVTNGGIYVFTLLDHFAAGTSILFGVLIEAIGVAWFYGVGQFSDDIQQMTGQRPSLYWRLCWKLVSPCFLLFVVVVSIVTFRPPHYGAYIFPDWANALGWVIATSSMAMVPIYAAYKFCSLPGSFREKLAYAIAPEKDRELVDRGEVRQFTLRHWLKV
# [3] = biological target: T3, human dopamine (hDAT) uptake transporter (Homo sapiens, UniProt Q01959); assay: Monoamine uptake inhibition, dopamine uptake in transfected HEK293 cells; assay type: cell-based
# T3 construct: expressed in transfected cells; host or cells: HEK293
# T3 sequence (Q01959 whole entry): as above
# Procedure: as §1, §2, §3, §4
# h5-HT1A receptor = biological target: T4, h5-HT1A receptor (Homo sapiens, UniProt P08908); assay: Radioligand binding, [3H]-8-OH-DPAT
# T4 construct: expressed in transfected cells; host or cells: HEK293 cell preparations
# T4 sequence (P08908 1-422): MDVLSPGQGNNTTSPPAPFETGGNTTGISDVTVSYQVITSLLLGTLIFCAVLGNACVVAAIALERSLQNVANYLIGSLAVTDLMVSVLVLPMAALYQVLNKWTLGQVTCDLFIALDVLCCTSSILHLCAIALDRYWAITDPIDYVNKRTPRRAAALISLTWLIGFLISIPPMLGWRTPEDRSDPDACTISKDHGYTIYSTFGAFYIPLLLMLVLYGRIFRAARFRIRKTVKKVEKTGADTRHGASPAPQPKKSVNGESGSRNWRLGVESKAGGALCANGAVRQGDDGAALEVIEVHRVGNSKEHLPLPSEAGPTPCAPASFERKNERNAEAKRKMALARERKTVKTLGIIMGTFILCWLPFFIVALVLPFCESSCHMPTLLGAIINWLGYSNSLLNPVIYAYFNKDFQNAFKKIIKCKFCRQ
# Procedure: The radioligand binding assays for the human 5-HT1A, 5-HT2A, and 5-HT2C receptors were examined as previously described by. In summary, the human embryonic kidney 293 (HEK293) cell preparations were stably transfected with the human 5-HT1A, 5-HT2A or 5-HT2C receptors and then incubated with their respective radiolabelled ligands at a concentration equal to the dissociation constant, Kd. The following radioligands were used for the 5-HT1A, 5-HT2A, and 5-HT2C receptors, respectively; 0.90 nM [^3H]8-hydroxy-2-(dipropylamino) tetralin (8-OH-DPAT), 0.40 nM [^3H]ketanserin, and 1.4 nM [^3H]mesulgerine. The radioligand displacement for each examined drug was determined. Specific binding of the radioligand to the target was calculated by subtracting the nonspecific binding (in the presence of the receptor’s competitor in excess) from the total observed binding. The following radioligand competitors were used for the 5-HT1A, 5-HT2A, and 5-HT2C receptors, respectively; 10 μM pindolol (5-HT1A receptor), 10 μM spiperone (5-HT2A receptor), and 10 μM mianserin (5-HT2C receptor).
# Rat TAAR1 = details: [3H]-RO5166017, cited from earlier work; for Ki: read-out: Rat TAAR1 Receptor Binding Ki ± SD
# Mouse TAAR1 = details: [3H]-RO5166017, read-out: Mouse TAAR1 Receptor Binding Ki ± SD, cited from earlier work
# [4] = ref Luethi, Kolaczynska et al. (2019)
# [5] = compared to pyrovalerone and MPHP
SMILES,IC50 [1] [µM],IC50 [2] [µM],IC50 [3] [µM],Ki (h5-HT1A receptor) [µM],other results
"CCCC(C(=O)c1ccc2c(c1)OCO2)N1CCCC1 (stereo not drawn) [MDPV, 3,4-methylenedioxypyrovalerone]",0.05,8.4,0.03,7.7 ± 0.6,Ki (hSERT; ref Simmler et al. (2013)): 2.9 ± 0.1 µM; Ki (hDAT; ref Simmler et al. (2013)): 0.01 ± 0.002 µM; Rat TAAR1 Receptor Binding Ki ± SD (Rat TAAR1; ref Simmler et al. (2013)): bound the rat TAAR1; Ki (Rat TAAR1; ref Simmler et al. (2013)): 7.2 ± 1.1 µM; Ki (Mouse TAAR1; ref Simmler et al. (2013)): > 10 µM
"CCCCC(C(=O)c1ccccc1)N1CCCC1 (stereo not drawn) [α-PHP, α-pyrrolidinohexanophenone]",0.06,245,0.06,11 ± 5.3,fold higher inhibition potency at the NET [1]: 11 fold; DAT/SERT Ratio (95% CI) ([3]; (1/DAT IC50):(1/SERT IC50)): >1000; fold higher potency at the DAT ([3]; compared to α-PPP): 9 fold
"CCCC(C(=O)c1ccc(C)cc1)N1CCCC1 (stereo not drawn) [Pyrovalerone, pyrovalerone]",0.06,13,0.05,13 ± 1.4,Ki (hSERT; ref Simmler et al. (2013)): 5 ± 0.3 µM; Ki (hDAT; ref Simmler et al. (2013)): 0.03 ± 0.01 µM; DAT/SERT Ratio (95% CI) [3]: 256 (125–450); DAT/SERT Ratio (95% CI) ([3]; listed as pyrovalerone): > 72; Ki (Rat TAAR1; ref Simmler et al. (2013)): > 12.5 µM; Ki (Mouse TAAR1; ref Simmler et al. (2013)): > 10 µM
"CCCCC(C(=O)c1ccc2c(c1)OCO2)N1CCCC1 (stereo not drawn) [MDPHP, 3,4-methylenedioxy-α-pyrrolidinohexanophenone]",0.06,9,0.05,13 ± 1.9,
"CNC(C)Cc1ccc2c(c1)OCO2 (stereo not drawn) [MDMA, 3,4-methylenedioxymethamphetamine, reference compound]",0.41,1.6,13,,Ki (hSERT; [4]): > 7.5 µM; Ki (hDAT; [4]): > 8.5 µM; Ki (Rat TAAR1; [4]): 0.25 ± 0.01 µM; Ki (Mouse TAAR1; [4]): 3.1 ± 0.7 µM
"CCC(C(=O)c1ccc(F)cc1)N1CCCC1 (stereo not drawn) [4F-PBP, 4-fluoro-α-pyrrolidinobutiophenone]",0.61,177,0.5,6 ± 3.4,
"CCCCC(C(=O)c1ccc(C)cc1)N1CCCC1 (stereo not drawn) [MPHP, 4-methyl-α-pyrrolidinohexanophenone]",0.07,11,0.06,13 ± 1.9,
"CC(C(=O)c1ccc2c(c1)OCO2)N1CCCC1 (stereo not drawn) [MDPPP, 3,4-methylenedioxy-α-pyrrolidinopropiophenone]",1.7,43,0.54,1.9 ± 0.8,Ki (hSERT; ref Rickli et al. (2015)): 12 ± 1 µM; Ki (hDAT; ref Rickli et al. (2015)): 0.18 ± 0.05 µM; Rat TAAR1 Receptor Binding Ki ± SD (Rat TAAR1; ref Rickli et al. (2015)): bound the rat TAAR1; Ki (Rat TAAR1; ref Rickli et al. (2015)): 16 ± 6.7 µM; Ki (Mouse TAAR1; ref Rickli et al. (2015)): > 20 µM
"CC(C(=O)c1ccccc1)N1CCCC1 (stereo not drawn) [α-PPP, α-pyrrolidinopropiophenone]",0.64,> 1000,0.56,0.7 ± 0.3,DAT/SERT Ratio (95% CI) ([3]; (1/DAT IC50):(1/SERT IC50)): >1000
"COc1ccc(C(=O)C(C)N2CCCC2)cc1 (stereo not drawn) [MOPPP, 4-methoxy-α-pyrrolidinopropiophenone]",8.7,94,4.6,> 17,NET IC50 value fold higher ([1]; than observed for α-PPP): about 14 fold; DAT/SERT Ratio (95% CI) ([3]; (1/DAT IC50):(1/SERT IC50)): 20 (4.0–40); fold lower inhibition potency at the DAT ([3]; compared to α-PPP): 8 fold
"Cc1ccc(C(=O)C(C)N2CCCC2)cc1 (stereo not drawn) [4-MePPP, 4-methyl-α-pyrrolidinopropiophenone]",0.64,55,0.75,12 ± 2.2,"fold lower potency at the NET [1, 5]: 11 fold; fold lower potency at the DAT [3, 5]: 15 fold"
"CCCC(C(=O)c1ccccc1)N1CCCC1 (stereo not drawn) [α-PVP, α-pyrrolidinopentiophenone]",0.02,279,0.03,6.1 ± 0.7,fold higher inhibition potency at the NET [1]: 32 fold; Ki (hSERT; ref Rickli et al. (2015)): > 30 µM; Ki (hDAT; ref Rickli et al. (2015)): 0.007 ± 0.002 µM; DAT/SERT Ratio (95% CI) ([3]; (1/DAT IC50):(1/SERT IC50)): >1000; fold higher potency at the DAT ([3]; compared to α-PPP): 17 fold; Rat TAAR1 Receptor Binding Ki ± SD (Rat TAAR1; ref Rickli et al. (2015)): bound the rat TAAR1; Ki (Rat TAAR1; ref Rickli et al. (2015)): 16 ± 6.4 µM; Ki (Mouse TAAR1; ref Rickli et al. (2015)): > 20 µM
"CCCCC(NCC)C(=O)c1ccccc1 (stereo not drawn) [NEH, N-ethylamine-hexanophenone]",0.17,47,0.18,> 17,
"CCC(C(=O)c1ccc2c(c1)OCO2)N1CCCC1 (stereo not drawn) [MDPBP, 3,4-methylenedioxy-α-pyrrolidinobutiophenone]",0.14,11,0.07,9 ± 1.5,Ki (hSERT; ref Rickli et al. (2015)): 4.1 ± 1.2 µM; Ki (hDAT; ref Rickli et al. (2015)): 0.02 ± 0.002 µM; Ki (Rat TAAR1; ref Rickli et al. (2015)): > 20 µM; Ki (Mouse TAAR1; ref Rickli et al. (2015)): > 20 µM
